Source: US4659726A, “Novel 4,5-Bis (4-methoxyphenyl)-2-(pyrrol-2-yl) thiazoles and pharmaceutical composition containing the same” (Kanebo, Ltd., priority 1984, dated 1987)
Structures can show the parent of a compound that is named as a salt. Where two headings read alike, the source gives them in different places.

Tests used:
[1] = tested on: Platelet aggregation (arachidonate); experiment: Platelet aggregation inhibitory activity, ex vivo after oral administration to guinea pigs, sodium arachidonate as aggregating agent; type: in vivo, Hartley strain male guinea pigs; conditions: Cavia porcellus, read-out: Platelet aggregation inhibitory activity Arachidonate ED50
Method: (§1) Hartley strain male guinea pigs (weighing 300-350 g, one group: three animals) were fasted overnight, and to the animals were orally administered a solution or suspension of the test compounds in corn oil-10% arabic gum. […] The citrated blood thus obtained was centrifuged at 1,700 rpm for 10 minutes, and a platelet-rich plasma (PRP) was obtained from the supernatant. After isolating PRP, the remaining blood was further centrifuged at 3,000 rpm for 10 minutes, and a platelet-poor plasma (PPP) was obtained from the supernatant.
(§2) The PRP (450 μl) thus obtained was incubated at 37° C. for 3 minutes, and thereto was added 1.0 mM sodium arachidonate (50 μl) as an aggregating agent, and then the platelet aggregation thereof was measured with Platelet Aggregation Profiler® (Model PAP-3, manufactured by Bio Data Corp.) while using the PPP obtained above as a blank. As a control, as to animals to which no test compound was administered, the platelet aggregation rate was measured likewise.
(§3) The platelet aggregation inhibitory rate was calculated by the following equation. [formula]

[2] = in vivo; conditions: mouse, oral, ddy male mice, deaths counted at 10 days, Weil method, read-out: Acute toxicity LD50
Text: ddy male mice (weighing 18-23 g, one group: 5 animals) were fasted overnight, and thereto was orally administered a suspension of the test compounds in 1% arabic gum solution.

[3] = tested on: Platelet aggregation (collagen); experiment: Platelet aggregation inhibitory activity, ex vivo after oral administration to guinea pigs, collagen as aggregating agent; type: in vivo, Hartley strain male guinea pigs; conditions: Cavia porcellus, read-out: Platelet aggregation inhibitory activity Collagen ED50
Method: as §1, §2, §3
Moreover, the above method was repeated except that 100 μg/ml collagen suspension (50 μl) was used as an aggregating agent instead of sodium arachidonate.

[4] = oral, guinea pig, blood collected after 3 hours, 1.0 mM sodium arachidonate (50 μl), 50% inhibitory rate
[5] = oral, guinea pig, blood collected after 3 hours, 100 μg/ml collagen suspension (50 μl), 50% inhibitory rate

Compound | ED50 ([1]; po, 3 h) [mg/kg] | LD50 at 240 h [2] [mg/kg] | ED50 ([3]; po, 3 h) [mg/kg] | ED50 [1, 4] [mg/kg] | ED50 [3, 5] [mg/kg]
CC(=O)Oc1ccccc1C(=O)O [Aspirin, reference compound] | 38.2 | 1060 | 58.9 | – | –
COc1ccc(-c2nc(C(F)(F)F)sc2-c2ccc(OC)cc2)cc1 [Compd. A, 4,5-bis(4-methoxyphenyl)-2-trifluoromethylthiazole, reference compound] | – | > 3000 | – | 0.54 | 1.29
COc1ccc(-c2nc(-c3ccc(F)cc3)sc2-c2ccc(OC)cc2)cc1 [Compd. B, 4,5-bis(4-methoxyphenyl)-2-(4-fluorophenyl)thiazole, reference compound] | – | > 3000 | – | 1.24 | 1.2
COc1ccc(-c2nc(-c3cccn3C)[nH]c2-c2ccc(OC)cc2)cc1 [Compd. C, 4,5-bis(4-methoxyphenyl)-2-(1-methylpyrrol-2-yl)imidazole, reference compound] | – | > 3000 | – | 1.21 | 2.51
CCn1cccc1-c1nc(-c2ccc(OC)cc2)c(-c2ccc(OC)cc2)s1 [Ex. 1, 4,5-Bis(4-methoxyphenyl)-2-(1-ethylpyrrol-2-yl)-thiazole] | – | > 3000 | – | 0.47 | 0.91
COc1ccc(-c2nc(-c3cccn3C(C)C)sc2-c2ccc(OC)cc2)cc1 [Ex. 2, 4,5-Bis(4-methoxyphenyl)-2-(1-isopropylpyrrol-2-yl)thiazole] | – | > 3000 | – | 0.29 | 0.63
CCCn1cccc1-c1nc(-c2ccc(OC)cc2)c(-c2ccc(OC)cc2)s1 [Ex. 3, 4,5-Bis(4-methoxyphenyl)-2-(1-n-propylpyrrol-2-yl)thiazole] | – | > 3000 | – | 0.32 | 0.52
COc1ccc(-c2nc(-c3cccn3CC(C)C)sc2-c2ccc(OC)cc2)cc1 [Ex. 4, 4,5-Bis(4-methoxyphenyl)-2-(1-isobutylpyrrol-2-yl)thiazole] | – | > 3000 | – | 0.41 | 0.78
C=CCn1cccc1-c1nc(-c2ccc(OC)cc2)c(-c2ccc(OC)cc2)s1 [Ex. 5, 4,5-Bis(4-methoxyphenyl)-2-(1-allylpyrrol-2-yl)-thiazole] | – | > 3000 | – | 0.4 | 0.55
C#CCn1cccc1-c1nc(-c2ccc(OC)cc2)c(-c2ccc(OC)cc2)s1 [Ex. 6, 4,5-Bis(4-methoxyphenyl)-2-(1-propargylpyrrol-2-yl)thiazole] | – | > 3000 | – | 0.22 | 0.92
COc1ccc(-c2nc(-c3cccn3CC(F)(F)F)sc2-c2ccc(OC)cc2)cc1 [Ex. 7, 4,5-Bis(4-methoxyphenyl)-2-[1-(2,2,2-trifluoroethyl)pyrrol-2-yl]thiazole] | – | > 3000 | – | 0.47 | 0.51
COC(=O)Cn1cccc1-c1nc(-c2ccc(OC)cc2)c(-c2ccc(OC)cc2)s1 [Ex. 13, methyl 2-[4,5-bis(4-methoxyphenyl)thiazol-2-yl]pyrrole-1-acetate] | – | > 3000 | – | 0.26 | 0.89
CCOC(=O)Cn1cccc1-c1nc(-c2ccc(OC)cc2)c(-c2ccc(OC)cc2)s1 [Ex. 14, ethyl 2-[4,5-bis(4-methoxyphenyl)thiazol-2-yl]pyrrole-1-acetate] | – | > 3000 | – | 0.088 | 0.19
CCCOC(=O)Cn1cccc1-c1nc(-c2ccc(OC)cc2)c(-c2ccc(OC)cc2)s1 [Ex. 15, n-Propyl 2-[4,5-bis(4-methoxyphenyl)thiazol-2-yl]-pyrrole-1-acetate] | – | > 3000 | – | 0.072 | 0.11
COc1ccc(-c2nc(-c3cccn3CC(=O)OC(C)C)sc2-c2ccc(OC)cc2)cc1 [Ex. 16, isopropyl 2-[4,5-bis(4-methoxyphenyl)thiazol-2-yl]pyrrole-1-acetate] | – | > 3000 | – | 0.061 | 0.11
CCCCOC(=O)Cn1cccc1-c1nc(-c2ccc(OC)cc2)c(-c2ccc(OC)cc2)s1 [Ex. 17, n-Butyl 2-[4,5-bis(4-methoxyphenyl)thiazol-2-yl]-pyrrole-1-acetate] | – | > 3000 | – | 0.15 | 0.19
COc1ccc(-c2nc(-c3cccn3CC(=O)OCC(C)C)sc2-c2ccc(OC)cc2)cc1 [Ex. 18, Isobutyl 2-[4,5-bis(4-methoxyphenyl)thiazol-2-yl]-pyrrole-1-acetate] | – | > 3000 | – | 0.072 | 0.12
CCC(C)OC(=O)Cn1cccc1-c1nc(-c2ccc(OC)cc2)c(-c2ccc(OC)cc2)s1 (centres unmarked) [Ex. 19, sec-Butyl 2-[4,5-bis(4-methoxyphenyl)thiazol-2-yl]pyrrole-1-acetate] | – | > 3000 | – | 0.12 | 0.11
CCCCCOC(=O)Cn1cccc1-c1nc(-c2ccc(OC)cc2)c(-c2ccc(OC)cc2)s1 [Ex. 20, n-pentyl 2-[4,5-bis(4-methoxyphenyl)thiazol-2-yl]pyrrole-1-acetate] | – | > 3000 | – | 0.28 | 0.49
COc1ccc(-c2nc(-c3cccn3CC(=O)OCCC(C)C)sc2-c2ccc(OC)cc2)cc1 [Ex. 21, Isopentyl 2-[4,5-bis(4-methoxyphenyl)thiazol-2-yl]pyrrole-1-acetate] | – | > 3000 | – | 0.12 | 0.22
COc1ccc(-c2nc(-c3cccn3CC(=O)OCC(C)(C)C)sc2-c2ccc(OC)cc2)cc1 [Ex. 22, Neopentyl 2-[4,5-bis(4-methoxyphenyl)thiazol-2-yl]pyrrole-1-acetate] | – | > 3000 | – | 0.11 | 0.4
CCC(C)COC(=O)Cn1cccc1-c1nc(-c2ccc(OC)cc2)c(-c2ccc(OC)cc2)s1 (centres unmarked) [Ex. 23, 2-methyl-1-butyl 2-[4,5-bis(4-methoxyphenyl)thiazol-2-yl]pyrrole-1-acetate] | – | > 3000 | – | 0.073 | 0.14
CCCC(C)OC(=O)Cn1cccc1-c1nc(-c2ccc(OC)cc2)c(-c2ccc(OC)cc2)s1 (centres unmarked) [Ex. 24, 2-pentyl 2-[4,5-bis(4-methoxyphenyl)thiazol-2-yl]pyrrole-1-acetate] | – | > 3000 | – | 0.12 | 0.22
CCC(CC)OC(=O)Cn1cccc1-c1nc(-c2ccc(OC)cc2)c(-c2ccc(OC)cc2)s1 [Ex. 25, 3-pentyl 2-[4,5-bis(4-methoxyphenyl)thiazol-2-yl]pyrrole-1-acetate] | – | > 3000 | – | 0.12 | 0.34
COc1ccc(-c2nc(-c3cccn3CC(=O)OC(C)C(C)C)sc2-c2ccc(OC)cc2)cc1 (centres unmarked) [Ex. 26, 3-methyl-2-butyl 2-[4,5-bis(4-methoxyphenyl)thiazol-2-yl]pyrrole-1-acetate] | – | > 3000 | – | 0.26 | 0.34
CCCCCCOC(=O)Cn1cccc1-c1nc(-c2ccc(OC)cc2)c(-c2ccc(OC)cc2)s1 [Ex. 27, n-hexyl 2-[4,5-bis(4-methoxyphenyl)thiazol-2-yl]pyrrole-1-acetate] | – | > 3000 | – | 0.21 | 0.22
Clc1ccccc1CN1CCc2sccc2C1 [Ticlopidine.HCl, Ticlopidine hydrochloride, reference compound] | – | – | – | > 300 | 300
